The values that follow are results of earlier work, collected in patent publication US20070122507A1, “Histone deacetylase and tumor necrosis factor converting enzyme inhibition” (priority 2005, published 2007).

In the data set the test system is R6/2 transgenic mouse models. To be noted: HD in R6/2 transgenic mouse models.

For `CCCC(=O)[O-].[Na+]` [sodium butyrate], the motor deficits entry is listed as “reduces”, the neuropathological effects entry is listed as “reduces” and the survival result is given as “significantly enhances survival”.
